Where “and” joins values, the source holds several entries; their conditions need not be identical. Identical values can stand only once.
Target: T1, partially purified rat brain farnesyl protein transferase (FPT) (Rattus norvegicus, UniProt Q02293+Q04631)
T1 construct: partially purified rat brain farnesyl protein transferase (FPT); from tissue; host or cells: rat brain
Assay: FPT IC50 in vitro enzyme assay (inhibition of Ras-CVLS farnesylation)
Format: biochemical
Settings: inhibition of Ras-CVLS famesylation; methods of WO/10515 or WO 95/10516
Protocol: 1. In vitro enzyme assays: FPT IC50 (inhibition of farnesyl protein transferase, in vitro enzyme assay) are determined by the methods disclosed in […] or WO 95/10516.

T1 sequence (Q02293 whole entry, one chain of several): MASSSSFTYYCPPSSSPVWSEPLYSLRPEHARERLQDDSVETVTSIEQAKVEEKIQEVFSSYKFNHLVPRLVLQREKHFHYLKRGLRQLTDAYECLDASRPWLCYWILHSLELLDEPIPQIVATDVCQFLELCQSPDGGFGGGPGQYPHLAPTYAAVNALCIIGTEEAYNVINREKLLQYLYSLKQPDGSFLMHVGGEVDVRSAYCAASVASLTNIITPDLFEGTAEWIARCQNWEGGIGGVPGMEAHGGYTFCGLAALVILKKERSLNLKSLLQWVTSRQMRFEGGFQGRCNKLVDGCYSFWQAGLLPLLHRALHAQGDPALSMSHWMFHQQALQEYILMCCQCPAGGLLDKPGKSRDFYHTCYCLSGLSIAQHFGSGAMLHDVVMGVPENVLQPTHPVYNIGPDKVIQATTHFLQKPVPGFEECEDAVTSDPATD

| IC50 | Structure (SMILES) |
| --- | --- |
| 180 to 21000 pM | CC(c1ccccc1)N1CCN(C(=O)NC2CCCCC2)[C@@H](C(=O)NCCc2cncn2Cc2ccc(C#N)cc2)C1 (stereo partly drawn) [Example 1, N2-[2-[1-[(4-cyanophenyl)methyl]-1H-imidazol-5-yl]ethyl]-N1-cyclohexyl-4-(1-phenylethyl)-1,2(R)-piperazinedicarboxamide] |
| 180 to 21000 pM | N#Cc1ccc(Cn2cncc2CCNC(=O)[C@H]2CN(Cc3ccncc3)CCN2C(=O)NC2CCCCC2)cc1 [Example 5] |
| 180 to 21000 pM | N#Cc1ccc(Cn2cncc2CCNC(=O)[C@H]2CN(CC3CC4C=CC3C4)CCN2C(=O)NC2CCCCC2)cc1 (stereo partly shown) [Example 6] |
| 180 to 1500 pM | CC(=O)Nc1ccc(CN2CCN(C(=O)NC3CCCCC3)[C@@H](C(=O)NCCc3cncn3Cc3ccc(C#N)cc3)C2)cc1 [Example 20] |
| 180 to 1500 pM | N#Cc1ccc(Cn2cncc2CCNC(=O)[C@H]2CN(Cc3cccc(Cl)c3)CCN2C(=O)NC2CCCCC2)cc1 [Example 25] |
| 180 to 1500 pM | COc1cccc(CN2CCN(C(=O)NC3CCCCC3)[C@@H](C(=O)NCCc3cncn3Cc3ccc(C#N)cc3)C2)c1 [Example 26] |
| 180 to 1500 pM | COc1ccccc1CN1CCN(C(=O)NC2CCCCC2)[C@@H](C(=O)NCCc2cncn2Cc2ccc(C#N)cc2)C1 [Example 27] |
| 180 to 21000 pM | CCCC(=O)N1CCN(Cc2ccccc2)CC1C(=O)NCCc1cncn1Cc1ccc(C#N)cc1 (stereo not shown) [Example 28F] |
| 180 to 21000 pM | N#Cc1ccc(Cn2cncc2CCNC(=O)C2CN(Cc3ccccc3)CCN2C(=O)c2ccccc2)cc1 (stereo not shown) [Example 28G] |
| 180 to 21000 pM | N#Cc1ccc(Cn2cncc2CCNC(=O)C2CN(Cc3ccccc3)CCN2C(=O)Cc2ccccc2)cc1 (stereo not shown) [Example 28I] |
| 180 to 21000 pM | N#Cc1ccc(Cn2cncc2CCNC(=O)C2CN(Cc3ccccc3)CCN2S(=O)(=O)Cc2ccccc2)cc1 (stereo not shown) [Example 28M] |
| 180 to 21000 pM and 180 to 1500 pM | CC(C)(C)NC(=O)N1CCN(Cc2ccccc2)CC1C(=O)NCCc1cncn1Cc1ccc(C#N)cc1 (stereo not shown) [Example 28O] |
| 180 to 21000 pM | N#Cc1ccc(Cn2cncc2CCNC(=O)C2CN(Cc3ccccc3)CCN2C(=O)CC2CCN(C(N)=O)CC2)cc1 (stereo not shown) [Example 28Q] |
| 180 to 21000 pM | O=C(C1CN(Cc2ccccc2)CCN1C(=O)NC1CCCCC1)N(CCCn1ccnc1)Cc1ccccc1 (stereo not shown) [Example 28S] |
| 180 to 21000 pM | CC(C)(C)NC(=O)N1CCN(Cc2ccccc2)CC1C(=O)N(CCCn1ccnc1)Cc1ccccc1 (stereo not shown) [Example 28T] |
| 180 to 1500 pM | N#Cc1ccc(Cn2cncc2CCNC(=O)[C@H]2CN(Cc3ccccc3Cl)CCN2C(=O)NC2CCCCC2)cc1 [Example 28] |
